From US4374284A, “Antiulcer, antiinflammatory, and antiallergic agent comprising as the main ingredient olean-12-ene-3β, 30-diol which is devoid of side effects of glycyrrhetinic acid and a new process for preparation of olean-12-ene-3β, 30-diol” (Minophagen Pharmaceutical Company, priority 1980, dated 1983)
Entries after “also recorded” stand apart in the source; their conditions may differ.

Columns and labels:
[1] = biological target: T1, Δ^4 -5α-reductase for aldosterone in rat liver (Rattus norvegicus, UniProt P24008); test: inhibitory action on Δ^4-5α-reductase for aldosterone; format: biochemical
T1 construct: The pellet was appropriately diluted with a solution of 0.25 M sucrose-1 mM EDTA to use as a 5α-reductase solution; from tissue; host or cells: rat liver, 105,000 g pellet
T1 sequence (P24008 1-259): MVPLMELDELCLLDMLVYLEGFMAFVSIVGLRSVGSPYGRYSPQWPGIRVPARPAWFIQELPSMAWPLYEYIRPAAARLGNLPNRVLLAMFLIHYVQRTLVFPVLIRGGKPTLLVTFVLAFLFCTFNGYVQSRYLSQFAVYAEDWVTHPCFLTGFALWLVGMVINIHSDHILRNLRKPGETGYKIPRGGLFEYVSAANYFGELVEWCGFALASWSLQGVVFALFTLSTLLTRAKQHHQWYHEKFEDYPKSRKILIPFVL
Description: (§1) In vitro experimental results regarding effects of glycyrrhetinic acid (II) and its modified compounds (III), (IV), and (I) on Δ^4 -5α and 5β-reductase for aldosterone in rat liver will be shown below.
(§2) Assay for activity of Δ^4 -5α and 5β-reductase
(§3) (1) Preparation of enzyme solutions
(§4) Rat livers were perfused with saline and excised to prepare a 25% or 50% homogenate with a solution of 0.25 M sucrose and 1 mM EDTA. The homogenate was spun at 10,000 g for 20 minutes to separate supernatant, which was centrifuged again at 105,000 g to obtain Δ^4 -5β-reductase as the supernatant. The pellet was appropriately diluted with a solution of 0.25 M sucrose-1 mM EDTA to use as a 5α-reductase solution.
(§5) (2) Conditions for incubation and assay
(§6) 1 Aldosterone . . . 0.173 μM/0.05 ml ethanol solution
(§7) 2 Glycyrrhetinic acid or its modified compounds . . . 0.173 μM/0.05 ml ethanol solution Control . . . 0.05 ml ethanol solution
(§8) 5α-reductase solution 0.1 ml
(§9) 5β-reductase solution 0.1 ml or 0.2 ml
(§10) 5 Phosphate buffer (0.1 M, pH 7.2) 1 ml
(§11) The components 1 , 2 , 3 , 4 , 5 , and 6 mentioned above were mixed to bring the total volume up to 2.5 ml. The mixture was incubated at 37° C. for 20 minutes. Before the incubation, however, 1 ml aliquot was removed from 2.5 ml of the mixture mentioned above and extracted with 5 ml of methylene dichloride. After the incubation, the remaining 1.5 ml was extracted with 5 ml of methylene dichloride. The optical density of the two methylene dichloride solutions prepared before and after the incubation was measured by a spectrophotometer (Hitachi) at 240 mμ. Inhibition % of Δ^4 -5α and 5β-reductase activity was calculated from the difference in the optical density.

stress-induced ulcer = test: mice experiments on stress-induced ulcer (restraint plus water immersion); format: in vivo, male ddY mice; conditions: for ulcer index: 200 mg/kg p.o.
Description: (a) Mice Experiments on stress-induced ulcer Experimental procedures:
Male ddY mice weighing about 20 g were made to fast for 18 hours. Water was given freely. Compounds to be tested were suspended in Tween 80 to prepare an aqueous suspension and administered orally. Immediately thereafter, the mice were subjected to restraint plus water immersion stress (25° C.) for 6 hours. Thereafter, the stomach was excised and fixed by formalin. The degree of ulcer was shown as a total of the length. The control group was given only the solvent.

aspirin-induced ulcer = test: rat experiment on aspirin-induced ulcer, pylorus ligated (experiment a); format: in vivo, male Wister rats
Description: (b) Rat experiment on aspirin-induced ulcer
(a) Experimental procedures:
Male Wister rats weighing about 220 g were made to fast for 24 hours. Water was given freely. The rats were laparotomized under anesthesia with ether. The stomach was drawn out and ligated at the pylorus. Immediately thereafter, 1% CMC suspension of aspirin was administered orally in a dose of 100 mg/kg/5 ml. Aqueous suspensions of compounds to be tested were prepared in the same manner as in the experiment (a) and administered intraduodenally at the same time. The wound was closed and the rats were set free. After 7 hours, the stomach was excised and ulcer was measured in the same manner as in the experiment (a).

[2] = system: writhing induced by acetic acid; test: effect on writhing induced by acetic acid (analgesic action); format: in vivo, male ddY mice; conditions: for number of writhing: counted for 10 minutes, control 24.9 ± 1.6, ** p < 0.01
Description: (b) Effect on writhing induced by acetic acid (analgesic action)
The present compound olean-12-ene-3β, 30-diol (I) was administered orally to male ddY mice weighing 25-27 g. After 30 minutes, saline containing 0.7% acetic acid was administered intraperitoneally. The number of writhings of the mice was counted for 10 minutes from, 10 min. of the administration. Aspirin was used as the reference.

[3] = biological target: T2, Δ^4 -5β-reductase for aldosterone in rat liver (Rattus norvegicus, UniProt P31210); test: inhibitory action on Δ^4-5β-reductase for aldosterone; format: biochemical; conditions: summary in words, liver reductase
T2 construct: centrifuged again at 105,000 g to obtain Δ^4 -5β-reductase as the supernatant; from tissue; host or cells: rat liver, 105,000 g supernatant (cytosol)
T2 sequence (P31210 1-326): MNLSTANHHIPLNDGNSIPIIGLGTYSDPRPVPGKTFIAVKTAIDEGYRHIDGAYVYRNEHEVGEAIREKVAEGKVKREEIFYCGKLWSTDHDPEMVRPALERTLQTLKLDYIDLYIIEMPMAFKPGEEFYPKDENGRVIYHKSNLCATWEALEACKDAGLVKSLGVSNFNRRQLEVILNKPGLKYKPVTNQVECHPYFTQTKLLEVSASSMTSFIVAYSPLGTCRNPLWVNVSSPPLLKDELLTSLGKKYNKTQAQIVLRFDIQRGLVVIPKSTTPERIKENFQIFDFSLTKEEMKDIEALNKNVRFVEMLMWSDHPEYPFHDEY
Description: as §1, §2, §3, §4, §5, §6, §7, §8, §9, §10, §11

[4] = system: Δ^4 -5β-reductase for aldosterone in rat liver; test: as above; format: biochemical; conditions: conclusion from reductase experiments
Description: as §1, §2, §3, §4, §5, §6, §7, §8, §9, §10, §11

[5] = system: ulcers induced by acetic acid; test: experiments with rats on ulcers induced by acetic acid (chronic gastric ulcers); format: in vivo; conditions: for ulcer value (major axis × minor axis): p.o., 14 days
Description: (c) Experiments with rats on ulcers induced by acetic acid
Chronic gastric ulcers were induced by penetrating 100% acetic acid serosally into gastric wall for 60 sec. using a small cup (6 mm in diameter, 5 mm in height).
From the next day, compounds to be tested were administered orally twice a day (morning and evening) for 14 days. Autopsies were carried out 15 days after the administrations.

CC1(C)[C@@H](O)CC[C@]2(C)[C@H]3CC=C4[C@@H]5C[C@@](C)(CO)CC[C@]5(C)CC[C@@]4(C)[C@]3(C)CC[C@@H]12 [I, olean-12-ene-3β, 30-diol]
inhibition at 0.173 µM ([1]; pH 7.2, read-out: 5α-reductase (inhibition %)): -7.1%
effect upon Δ^4 -5α-5β-reductase (in words), 5α ([1]; summary in words, liver reductase): no inhibitory activity
inhibitory effect on stress-induced ulcer (in words) (stress-induced ulcer; 200 mg/kg): showed a stronger inhibitory effect than glycyrrhetinic acid (II)
ulcer index (stress-induced ulcer; 1st experiment, control 5.63 ± 0.55): 2.94 ± 0.81
ulcer index (stress-induced ulcer; 2nd experiment, control 4.13 ± 0.8): 2.19 ± 0.6
ulcer index (stress-induced ulcer; 3rd experiment, control 6.00 ± 0.87): 3.88 ± 0.79
ulcer index (stress-induced ulcer; 4th experiment, control 4.20 ± 0.70): 1.89 ± 0.53
antiulcer effect compared with glycyrrhetinic acid (in words) (stress-induced ulcer; all antiulcer experiments (stress, aspirin, acetic acid)): shows superior effects to glycyrrhetinic acid in all the experiments
ulcer index (aspirin-induced ulcer; 320 mg/kg (head p.o.; text intraduodenally), aspirin 100 mg/kg, after 7 hours, control 14.1 ± 3.14): 6.2 ± 2.37
inhibitory effect on aspirin-induced ulcer, experiment (a) (in words) (aspirin-induced ulcer; rat, in vivo): showed an inhibitory effect
number of writhing ([2]; 100 mg/kg p.o.): 15.5 ± 2.8
number of writhing ([2]; 200 mg/kg p.o.): 11.1 ± 1.6
number of writhing ([2]; 400 mg/kg p.o.): 8.0 ± 1.7
effect on writhing (in words) ([2]; increasing doses): significantly decrease the number of writhing; also recorded: a little stronger than that of (II), but not so perfect as aspirin
effect upon Δ^4 -5α-5β-reductase (in words), 5β [3]: no inhibitory activity
aldosterone-like action (in words) [4]: entirely devoid of aldosterone-like action
ulcer value (major axis × minor axis) ([5]; Experiment 1, 200 mg/kg (half dose twice/day), control 12.0 ± 2.3): 10.1 ± 3.4
ulcer value (major axis × minor axis) ([5]; Experiment 1, 400 mg/kg (half dose twice/day), control 12.0 ± 2.3): 7.5 ± 0.7
ulcer value (major axis × minor axis) ([5]; Experiment 2, 200 mg/kg (half dose twice/day), control 8.9 ± 1.7): 6.7 ± 2.2
ulcer value (major axis × minor axis) ([5]; Experiment 2, 400 mg/kg (half dose twice/day), control 8.9 ± 1.7): 5.2 ± 1.2
ulcer value (major axis × minor axis) ([5]; Total, 200 mg/kg (half dose twice/day), control 10.4 ± 1.4): 8.4 ± 2.0
ulcer value (major axis × minor axis) ([5]; Total, 400 mg/kg (half dose twice/day), control 10.4 ± 1.4, * p < 0.05): 6.2 ± 0.8
inhibitory effect on acetic acid ulcer (in words) ([5]; dose of 200 mg): showed an inhibitory effect to some extent
healing rate ([5]; dose of 400 mg): more than 40%
inhibitory effect on acetic acid ulcer (in words) ([5]; dose of 400 mg): clearly showed inhibitory effects
